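Cells were grown in 96-well plates and exposed to each compound for 48 hours at five concentrations; endpoints were interpolated linearly between bracketing concentrations, or set to the highest concentration if not reached. GI50 is the concentration that inhibits growth by half. At the TGI there is no net growth.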
How the values were obtained:
Test in all cases: NCI tumour cell line growth inhibition, 48 h
OVCAR-3 ovarian = test system: OVCAR-3 ovarian
U251 CNS = test system: U251 CNS
KM12 colon = test system: KM12 colon
RXF 393 renal = test system: RXF 393 renal
NCI-H522 lung = test system: NCI-H522 lung
SF-295 CNS = test system: SF-295 CNS
CAKI-1 renal = test system: CAKI-1 renal
HL-60(TB) leukemia = test system: HL-60(TB) leukemia
NCI-H226 lung = test system: NCI-H226 lung
EKVX NSCLC = test system: EKVX NSCLC
HS 578T breast = test system: HS 578T breast
COLO 205 colon = test system: COLO 205 colon
786-0 renal = test system: 786-0 renal
HOP-62 NSCLC = test system: HOP-62 NSCLC
UACC-62 melanoma = test system: UACC-62 melanoma
A549 NSCLC = test system: A549 NSCLC
SF-268 CNS = test system: SF-268 CNS
SK-OV-3 ovarian = test system: SK-OV-3 ovarian
CCRF-CEM leukemia = test system: CCRF-CEM leukemia
HT29 colon = test system: HT29 colon
DU-145 prostate = test system: DU-145 prostate
MCF7 breast = test system: MCF7 breast
UACC-257 melanoma = test system: UACC-257 melanoma
NCI-H23 lung = test system: NCI-H23 lung
HCT-116 colon = test system: HCT-116 colon
SK-MEL-5 melanoma = test system: SK-MEL-5 melanoma
NCI/ADR-RES ovarian = test system: NCI/ADR-RES ovarian
MDA-MB-435 = test system: MDA-MB-435
SNB-19 CNS = test system: SNB-19 CNS
BT-549 breast = test system: BT-549 breast
OVCAR-4 ovarian = test system: OVCAR-4 ovarian
SK-MEL-28 melanoma = test system: SK-MEL-28 melanoma
K-562 leukemia = test system: K-562 leukemia
PC-3 prostate = test system: PC-3 prostate
NCI-H460 lung = test system: NCI-H460 lung
UO-31 renal = test system: UO-31 renal
SN12C renal = test system: SN12C renal
T-47D breast = test system: T-47D breast
OVCAR-8 ovarian = test system: OVCAR-8 ovarian
M14 melanoma = test system: M14 melanoma
SR leukemia = test system: SR leukemia
IGROV1 ovarian = test system: IGROV1 ovarian
OVCAR-5 ovarian = test system: OVCAR-5 ovarian
SNB-75 CNS = test system: SNB-75 CNS
ACHN renal = test system: ACHN renal
RPMI-8226 leukemia = test system: RPMI-8226 leukemia
HCC-2998 colon = test system: HCC-2998 colon
HCT-15 colon = test system: HCT-15 colon
TK-10 renal = test system: TK-10 renal
SK-MEL-2 melanoma = test system: SK-MEL-2 melanoma
MDA-MB-231 breast = test system: MDA-MB-231 breast
SW-620 colon = test system: SW-620 colon
MALME-3M melanoma = test system: MALME-3M melanoma
LOX IMVI melanoma = test system: LOX IMVI melanoma
SF-539 CNS = test system: SF-539 CNS
A498 renal = test system: A498 renal
MOLT-4 leukemia = test system: MOLT-4 leukemia

## COc1cc(C)c(Cl)cc1C1=NN(c2ccc(S(N)(=O)=O)cc2)C(/C=C/c2ccccc2)C1 (centres undefined)
OVCAR-3 ovarian
  GI50: 2.61 µM
  TGI: 6.46 µM
U251 CNS
  GI50: 3.12 µM
  TGI: 11.3 µM
KM12 colon
  GI50: 3.4 µM
  TGI: 14.8 µM
RXF 393 renal
  GI50: 1.71 µM
  TGI: 3.5 µM
NCI-H522 lung
  GI50: 2.3 µM
  TGI: 5.34 µM
SF-295 CNS
  GI50: 3.17 µM
  TGI: 13.6 µM
CAKI-1 renal
  GI50: 2.7 µM
  TGI: 19.1 µM
HL-60(TB) leukemia
  GI50: 3.6 µM
  TGI: 16 µM
NCI-H226 lung
  GI50: 1.53 µM
  TGI: 3.46 µM
EKVX NSCLC
  GI50: 2.68 µM
  TGI: 22 µM
HS 578T breast
  GI50: 2.89 µM
  TGI: 9.83 µM
COLO 205 colon
  GI50: 1.76 µM
  TGI: 3.33 µM
786-0 renal
  GI50: 3.67 µM
  TGI: 11.9 µM
HOP-62 NSCLC
  GI50: 3.1 µM
  TGI: 11.8 µM
UACC-62 melanoma
  GI50: 3.77 µM
  TGI: 19.4 µM
A549 NSCLC
  GI50: 3.31 µM
  TGI: 19.3 µM
SF-268 CNS
  GI50: 4.4 µM
  TGI: > 100 µM
SK-OV-3 ovarian
  GI50: 3.74 µM
  TGI: 16.2 µM
CCRF-CEM leukemia
  GI50: 4.34 µM
  TGI: > 100 µM
HT29 colon
  GI50: 1.8 µM
  TGI: 4.07 µM
DU-145 prostate
  GI50: 3.91 µM
  TGI: 16.7 µM
MCF7 breast
  GI50: 2.55 µM
  TGI: 9.13 µM
UACC-257 melanoma
  GI50: 3.58 µM
  TGI: 20.5 µM
NCI-H23 lung
  GI50: 2.02 µM
  TGI: 7.73 µM
HCT-116 colon
  GI50: 1.9 µM
  TGI: 4.72 µM
SK-MEL-5 melanoma
  GI50: 1.61 µM
  TGI: 3 µM
NCI/ADR-RES ovarian
  GI50: 3.46 µM
  TGI: 37.7 µM
MDA-MB-435
  GI50: 2.65 µM
  TGI: 8.4 µM
SNB-19 CNS
  GI50: 8.08 µM
  TGI: > 100 µM
BT-549 breast
  GI50: 2.35 µM
  TGI: 4.76 µM
OVCAR-4 ovarian
  GI50: 2.77 µM
  TGI: 24.9 µM
SK-MEL-28 melanoma
  GI50: 3.1 µM
  TGI: 11.4 µM
K-562 leukemia
  GI50: 5.29 µM
  TGI: > 100 µM
PC-3 prostate
  GI50: 3.11 µM
  TGI: 13.8 µM
NCI-H460 lung
  GI50: 2.43 µM
  TGI: 6.3 µM
UO-31 renal
  GI50: 2.54 µM
  TGI: 12.6 µM
SN12C renal
  GI50: 2.68 µM
  TGI: 7.03 µM
T-47D breast
  GI50: 3.34 µM
  TGI: 16 µM
OVCAR-8 ovarian
  GI50: 3.33 µM
  TGI: 19.1 µM
M14 melanoma
  GI50: 4.11 µM
  TGI: 24.3 µM
SR leukemia
  GI50: 3.06 µM
  TGI: 8.91 µM
IGROV1 ovarian
  GI50: 4.15 µM
  TGI: 43.9 µM
OVCAR-5 ovarian
  GI50: 4.04 µM
  TGI: 57.3 µM
SNB-75 CNS
  GI50: 3 µM
  TGI: 30.1 µM
ACHN renal
  GI50: 3.2 µM
  TGI: 13.3 µM
RPMI-8226 leukemia
  GI50: 2.76 µM
  TGI: 7.93 µM
HCC-2998 colon
  GI50: 2.57 µM
  TGI: 8.49 µM
HCT-15 colon
  GI50: 3.11 µM
  TGI: > 100 µM
TK-10 renal
  GI50: 3.25 µM
  TGI: 11.5 µM
SK-MEL-2 melanoma
  GI50: 3.24 µM
  TGI: 8.75 µM
MDA-MB-231 breast
  GI50: 3.3 µM
  TGI: 10.8 µM
SW-620 colon
  GI50: 4.09 µM
  TGI: 20.7 µM
MALME-3M melanoma
  GI50: 2.68 µM
  TGI: 9.98 µM
LOX IMVI melanoma
  GI50: 1.67 µM
  TGI: 3.21 µM
SF-539 CNS
  GI50: 4.26 µM
  TGI: 17 µM
A498 renal
  GI50: 2.67 µM
  TGI: 5.71 µM
MOLT-4 leukemia
  GI50: 3.37 µM
  TGI: 64.4 µM

Source: PubChem BioAssay (NCI)
